Experimental data reported in patent US11351229B2, “Combination therapies for treating infantile spasms and other treatment resistant epilepsies” (Baylor College of Medicine, priority 2017, dated 2022).
Like-named read-outs stand apart in the source and are kept apart here.

Legend:
[1] = Plasma concentration of vigabatrin alone or co-administered with (1-3)IGF-1; assay type: in vivo, rat; settings: vigabatrin 125 mg/kg, (1-3)IGF-1 20 mg/kg, rats
Description: FIG. 21 illustrates plasma concentration for vigabatrin (administered to rats at 125 mg/kg) when administered alone or in combination with (1-3)IGF-1 (20 mg/kg).

[2] = system: IGF-1R-PI3K-AKT and IGF-1R-Ras-ERK signaling cascades; test: Western blots of IGF-1R signaling in neocortex (Example 9); assay type: in vivo
Description: Briefly, brains were quickly removed from the skull under anesthesia and the cortex dissected free from adhering tissue. It was then snap frozen on dry ice and later homogenized by sonication. Protein concentrations were determined by the BCA assay. Equal quantities of protein (10 μg) from each sample were resolved by polyacrylamide gel electrophoresis. The primary antibodies used were against: pAKT Thr308, pAkt Ser473, pS6 Ser240/244, AKT, S6, IGF-1R. Secondary antibodies were conjugated to horseradish peroxidase and visualization of immunoreactive bands was produced by enhanced chemiluminescence and then exposed to Kodak Biomax film. After digitization, band intensity was quantified with Image J Image software. Blots were also probed with antibodies to GAPDH, which served as a loading control. Band intensity was normalized to control values on the same blot.
The experiments were performed using N=5 for both control and epileptic groups. Animals were 6 weeks old and sacrificed 2 hours after treatment.
Animals (6 weeks old) were treated with 50 mg/kg of PPP or DMSO vehicle. Four hours later, they received 20 mg/kg of (1-3)IGF-1 or vehicle. Two hour later the neocortex was collected.
Vigabatrin (125 mg/kg) was injected 2 and 24 hours before collecting neocortex. Western blots from 2 animals and controls are shown in upper panel (FIG. 25A) for bar graphs n=6. For the combination study, the animals were administered vigabatrin (125/mg/kg), and (1-3)IGF-1 (20 mg/kg) was injected 30 min before collecting cortex in the combination group and the (1-3)IGF-1-only group. Controls received vehicle only. The results are illustrated in FIG. 25B.

[3] = system: hypsarrhythmia (abnormal EEG pattern); test: EEG analysis for hypsarrhythmia in rats with spasms; assay type: in vivo, rat; settings: VGB 325 mg/kg/day, 2 weeks; 5 rats with pattern at baseline
[4] = system: epileptic spasms (TTX rat model of infantile spasms); assay type: in vivo
[5] = human, in vivo; cited from earlier work
[6] = each drug alone: VGB 250 mg/kg/day or (1-3)IGF-1 10 mg/kg/day, 2 weeks

NCC(=O)N1CCC[C@H]1C(=O)N[C@@H](CCC(=O)O)C(=O)O [(1-3)IGF-1, Gly-Pro-Glu]
effect of co-administration on vigabatrin pharmacokinetics (plasma concentration) [1]: no discernible effect

COc1cc([C@@H]2c3cc4c(cc3[C@H](O)[C@H]3COC(=O)[C@@H]23)OCO4)cc(OC)c1OC [picropodophyllin, (5R,5aR,8aS,9R)-5-hydroxy-9-(3,4,5-trimethoxyphenyl)-5a,6,8a,9-tetrahydro-5H-[2]benzofuro[5,6-f][1,3]benzodioxol-8-one]
effect on (1-3)IGF-1 induced activation of AKT ([2]; 50 mg/kg PPP, 4 hours before 20 mg/kg (1-3)IGF-1, neocortex collected 2 hours later): blocks

C=CC(N)CCC(=O)O (stereo not shown) [vigabatrin, γ-vinyl-GABA]
activation of IGF-1R signaling ([2]; vigabatrin 125 mg/kg, 2 and 24 hours before collecting neocortex): does not activate
effect on (1-3)IGF-1-induced IGF-1R signaling ([2]; vigabatrin 125 mg/kg, (1-3)IGF-1 20 mg/kg 30 min before collecting cortex): does not alter
hypsarrhythmia after treatment [3]: eliminated in all of them
spasm counts (in words) ([4]; VGB 325 mg/kg/day i.p., 2 weeks, vs vehicle controls): dramatic reduction in spasm counts
effect on spasm counts (in words) [4, 6]: modest effects on spasm counts
presence of spasms after treatment, all rats [4, 6]: continued to have spasms
effect on % animals with spasms ([4]; individual administration: vigabatrin 125 mg/kg/day or (1-3)IGF-1 20 mg/kg/day, 2 weeks): no measurable effect
effect on % animals with spasms ([4]; individual administration: vigabatrin 250 mg/kg/day or (1-3)IGF-1 10 mg/kg/day, 2 weeks): no measurable effect
adults with visual field loss [5]: 52%
children with visual field loss [5]: 34%
vigabatrin-treated subjects with visual field loss [5]: 44%

rhIGF-1: rhIGF-1 from Peprotech; the full length growth factor
rats that became free of spasms ([4]; rhIGF-1 1 mg/kg/day, 3 weeks): One of the 5
rats that continued to have spasms after treatment ([4]; rhIGF-1 1 mg/kg/day, 3 weeks): 4 of 5
reduction of spasm counts, on average ([4]; rhIGF-1 1 mg/kg/day, 3 weeks): 40%
